Patent publication US8889591B2, “Herbicidal compositions comprising 4-amino-3-chloro-5-fluoro-6-(4-chloro-2-fluoro-3-methoxyphenyl)pyridine-2-carboxylic acid or a derivative thereof and bromobutide, daimuron, oxaziclomefone or pyributicarb” (Dow Agrosciences LLC, priority 2012, dated 2014)

Columns and labels:
ECHCG [1] = test: In-water applied greenhouse weed control, transplanted paddy rice system; assay type: in vivo, Echinochloa crusgalli (L.) Beauv.; details: in-water application
Method: Weed seeds or nutlets of the desired test plant species were planted in puddled soil (mud) prepared by mixing a shredded, non-sterilized mineral soil (50.5 percent silt, 25.5 percent clay, and 24 percent sand, with a pH of about 7.6 and an organic matter content of about 2.9 percent) and water at a 1:1 volumetric ratio. The prepared mud was dispensed in 365 mL aliquots into 16-ounce (oz.) non-perforated plastic pots with a surface area of 86.59 square centimeters (cm^2) leaving a headspace of 3 centimeters (cm) in each pot. Mud was allowed to dry overnight prior to planting or transplanting. Rice seeds were planted in Sun Gro MetroMix® 306 planting mixture, which typically has a pH of 6.0 to 6.8 and an organic matter content of about 30 percent, in plastic plug trays. Seedlings at the second or third leaf stage of growth were transplanted into 840 mL of mud contained in 32-oz. non-perforated plastic pots with a surface area of 86.59 cm^2 4 days prior to herbicide application. The paddy was created by filling the headspace of the pots with 2.5 to 3 cm of water. […]
Treatment requirements for each compound or herbicidal component were calculated based upon the rates being tested, the concentration of active ingredient or acid equivalent in the formulation, an application volume of 2 mL per component per pot, and an application area of 86.59 cm^2 per pot.
For formulated compounds, a measured amount was placed in an individual 100 or 200 mL glass vial and was dissolved in a volume of 1.25% (v/v) Agri-Dex® crop oil concentrate to obtain application solutions. […]
The treated plants and control plants were placed in a greenhouse as described above and water was added as needed to maintain a paddy flood. After approximately 3 weeks the condition of the test plants as compared with that of the untreated plants was determined visually and scored on a scale of 0 to 100 percent where 0 corresponds to no injury or growth inhibition and 100 corresponds to complete kill. […]

ECHCG [2] = test: Postemergence foliar-applied greenhouse weed control, direct-seeded rice system; assay type: in vivo, Echinochloa crusgalli (L.) Beauv.
From the text: Seeds or nutlets of the desired test plant species were planted in a soil matrix prepared by mixing a loam or sandy loam soil (e.g., 28.6 percent silt, 18.8 percent clay, and 52.6 percent sand, with a pH of about 5.8 and an organic matter content of about 1.8 percent) and calcareous grit in an 80 to 20 ratio. The soil matrix was contained in plastic pots with a volume of 1 quart and a surface area of 83.6 square centimeters (cm^2). When required to ensure good germination and healthy plants, a fungicide treatment and/or other chemical or physical treatment was applied. The plants were grown for 8-22 days in a greenhouse with an approximate 14 h photoperiod which was maintained at about 29° C. during the day and 26° C. during the night. Nutrients (Peters Excel® 15-5-15 5-Ca 2-Mg and iron chelate) were applied in the irrigation solution as needed and water was added on a regular basis. Supplemental lighting was provided with overhead metal halide 1000-Watt lamps as necessary. The plants were employed for testing when they reached the first through fourth true leaf stage.
Treatments consisted of the acid or esters of 4-amino-3-chloro-5-fluoro-6-(4-chloro-2-fluoro-3-methoxy-phenyl)pyridine-2-carboxylic acid (Compound A), each formulated as an SC (suspension concentrate), and various herbicidal components alone and in combination. Forms of compound A were applied on an acid equivalent basis.
Other herbicidal components were applied on an active ingredient basis and included diamuron formulated as an EC (emulsifiable concentrate) and oxaziclomefone (technical grade material).
Treatment requirements were calculated based upon the rates being tested, the concentration of active ingredient or acid equivalent in the formulation, and a 12 mL application volume at a rate of 187 L/ha.
For treatments comprised of formulated compounds, measured amounts of compounds were placed individually in 25 mL glass vials and diluted in a volume of 1.25% (v/v) Agri-Dex® crop oil concentrated to obtain 12× stock solutions. […] Application solutions were prepared by adding an appropriate amount of each stock solution (e.g., 1 mL) and diluted to the appropriate final concentrations with the addition of 10 mL of an aqueous mixture of 1.25% (v/v) crop oil concentrate so that the final spray solutions contained 1.25+/−0.05% (v/v) crop oil concentrate.
For treatments comprised of technical compounds, weighed amounts can be placed individually in 25 mL glass vials and dissolved in a volume of 97:3 v/v acetone/DMSO to obtain 12× stock solutions. […] Application solutions can be prepared by adding an appropriate amount of each stock solution (e.g., 1 mL) and diluted to the appropriate final concentrations with the addition of 10 mL of an aqueous mixture of 1.5% (v/v) crop oil concentrate so that the final spray solutions contain 1.25% (v/v) crop oil concentrate. When technical materials are used, the concentrated stock solutions can be added to the spray solutions so that the final acetone and DMSO concentrations of the application solutions are 16.2% and 0.5%, respectively.
For treatments comprised of formulated and technical compounds, weighed amounts of the technical materials were placed individually in 25 mL glass vials and dissolved in a volume of 97:3 v/v acetone/DMSO to obtain 12× stock solutions, and measured amounts of the formulated compounds were placed individually in 25 mL glass vials and diluted in a volume of 1.5% (v/v) crop oil concentrate or water to obtain 12× stock solutions. […] Application solutions were prepared by adding an appropriate amount of each stock solution (e.g., 1 mL) and diluted to the appropriate final concentrations with the addition of an appropriate amount of an aqueous mixture of 1.5% (v/v) crop oil concentrate so that the final spray solutions contained 1.25% (v/v) crop oil concentrate. […]

[3] = Compound A Benzyl Ester 4.38 gae/ha alone
[4] = Compound A Benzyl Ester 8.75 gae/ha alone

COc1c(Cl)ccc(-c2nc(C(=O)OCc3ccccc3)c(Cl)c(N)c2F)c1F [Compound A Benzyl Ester]
Visual Weed Control (%) - 21 DAA ECHCG Obs (ECHCG [1]; [3]): 40%
Visual Weed Control (%) - 21 DAA ECHCG Obs (ECHCG [1]; [4]): 50%
Visual Weed Control (%) - 20 DAA ECHCG Obs (ECHCG [2]; [3]): 40%
Visual Weed Control (%) - 20 DAA ECHCG Obs (ECHCG [2]; [4]): 90%
